Reference: PubChem BioAssay (NCI)
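Abbreviation: GI50, concentration required for 50% inhibition of growth. TGI: total growth inhibition.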

What was measured:
Assay in all cases: DTP human tumour cell line panel, 384-well format
[1] = system: SNB-19 CNS
[2] = system: SK-MEL-28 melanoma
[3] = system: SF-539 CNS
[4] = system: NCI/ADR-RES ovarian
[5] = system: BT-549 breast
[6] = system: TK-10 renal
[7] = system: LOX IMVI melanoma
[8] = system: SN12C renal
[9] = system: HCC-2998 colon
[10] = system: OVCAR-5 ovarian
[11] = system: NCI-H23 lung
[12] = system: NCI-H522 lung
[13] = system: KM12 colon
[14] = system: HL-60(TB) leukemia
[15] = system: 786-0 renal
[16] = system: A498 renal
[17] = system: HOP-92 NSCLC
[18] = system: IGROV1 ovarian
[19] = system: SK-MEL-5 melanoma
[20] = system: MALME-3M melanoma
[21] = system: OVCAR-8 ovarian
[22] = system: SNB-75 CNS
[23] = system: EKVX NSCLC
[24] = system: A549 NSCLC
[25] = system: RXF 393 renal
[26] = system: CCRF-CEM leukemia
[27] = system: SF-268 CNS
[28] = system: T-47D breast
[29] = system: M14 melanoma
[30] = system: OVCAR-4 ovarian
[31] = system: SW-620 colon
[32] = system: HCT-116 colon
[33] = system: HT29 colon
[34] = system: MDA-MB-435 melanoma
[35] = system: HOP-62 NSCLC
[36] = system: K-562 leukemia
[37] = system: ACHN renal
[38] = system: MDA-MB-468 breast
[39] = system: NCI-H460 NSCLC
[40] = system: OVCAR-3 ovarian
[41] = system: U251 glioblastoma
[42] = system: COLO 205 colon
[43] = system: MOLT-4 leukemia
[44] = system: SK-OV-3 ovarian
[45] = system: HCT-15 colon
[46] = system: CAKI-1 renal
[47] = system: UACC-62 melanoma

CN1CC[C@@H](c2c(O)cc(O)c3c(=O)cc(-c4ccc(C(F)(F)F)cc4Cl)oc23)[C@@H]1CO
GI50 [1]: 18.7 µM
TGI [1]: 33.9 µM
GI50 [2]: 13.5 µM
TGI [2]: 26.4 µM
GI50 [3]: 16.1 µM
TGI [3]: 29.8 µM
GI50 [4]: 17.7 µM
TGI [4]: 35.9 µM
GI50 [5]: 14.6 µM
TGI [5]: 27.8 µM
GI50 [6]: 14.2 µM
TGI [6]: 32.3 µM
GI50 [7]: 14 µM
TGI [7]: 27.1 µM
GI50 [8]: 13.7 µM
TGI [8]: 26.7 µM
GI50 [9]: 13.2 µM
TGI [9]: 26.2 µM
GI50 [10]: 16.5 µM
TGI [10]: 37.3 µM
GI50 [11]: 14.9 µM
TGI [11]: 28.2 µM
GI50 [12]: 14 µM
TGI [12]: 27.1 µM
GI50 [13]: 13.1 µM
TGI [13]: 26 µM
GI50 [14]: 9.56 µM
TGI [14]: 21.9 µM
GI50 [15]: 13.6 µM
TGI [15]: 26.7 µM
GI50 [16]: 11.8 µM
TGI [16]: 24.2 µM
GI50 [17]: 12.7 µM
TGI [17]: 25.3 µM
GI50 [18]: 12 µM
TGI [18]: 25.7 µM
GI50 [19]: 16.7 µM
TGI [19]: 30.4 µM
GI50 [20]: 12.2 µM
TGI [20]: 24.6 µM
GI50 [21]: 14.2 µM
TGI [21]: 27.4 µM
GI50 [22]: 12.6 µM
TGI [22]: 25.2 µM
GI50 [23]: 13.8 µM
TGI [23]: 27.1 µM
GI50 [24]: 16.7 µM
TGI [24]: 31.7 µM
GI50 [25]: 12.3 µM
TGI [25]: 24.8 µM
GI50 [26]: 13.8 µM
TGI [26]: 26.8 µM
GI50 [27]: 15.1 µM
TGI [27]: 28.5 µM
GI50 [28]: 13.8 µM
TGI [28]: 26.8 µM
GI50 [29]: 17 µM
TGI [29]: 30.8 µM
GI50 [30]: 15.4 µM
TGI [30]: 29.6 µM
GI50 [31]: 17.5 µM
TGI [31]: 31.6 µM
GI50 [32]: 12.4 µM
TGI [32]: 25.4 µM
GI50 [33]: 17.6 µM
TGI [33]: 31.8 µM
GI50 [34]: 20.5 µM
TGI [34]: 34.9 µM
GI50 [35]: 14.4 µM
TGI [35]: 27.7 µM
GI50 [36]: 13.9 µM
TGI [36]: 27.3 µM
GI50 [37]: 12.6 µM
TGI [37]: 25.7 µM
GI50 [38]: 11.8 µM
TGI [38]: 24.1 µM
GI50 [39]: 14.5 µM
TGI [39]: 28 µM
GI50 [40]: 12.7 µM
TGI [40]: 25.9 µM
GI50 [41]: 15.5 µM
TGI [41]: 29 µM
GI50 [42]: 18.4 µM
TGI [42]: 32.6 µM
GI50 [43]: 12.7 µM
TGI [43]: 25.4 µM
GI50 [44]: 16.3 µM
TGI [44]: 31.1 µM
GI50 [45]: 16.1 µM
TGI [45]: 30 µM
GI50 [46]: 4.61 µM
TGI [46]: 13.1 µM
GI50 [47]: 9.36 µM
TGI [47]: 21.7 µM
